Laboratory results as given in patent publication US20180072997A1, “INHIBITORS OF HUMAN IMMUNODEFICIENCY VIRUS REPLICATION” (ViiV HEATHCARE UK (NO.5) LIMITED, priority 2015, published 2018).

Columns and labels:
[1] = tested on: recombinant NL4-3 virus (Renilla luciferase in nef) in MT-2 cells; test: whole plant or invertebrate; type: cell-based, HIV; conditions: Renilla, NL43, MT-2 cells infected for 4-5 days with recombinant NL4-3 Renilla luciferase virus; luciferase activity
In short: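 MT-2 cells infected for 4-5 days with NL4-3 reporter virus (Renilla luciferase replacing part of nef, produced by transfection of 293T cells) in the presence of serial compound dilutions. Antiviral activity quantified by luciferase activity read with a live-cell substrate.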

[2] = Compound cytotoxicity, XTT-based colorimetric assay; type: cell-based; conditions: human, uninfected MT2 cells, day 4, XTT
In short: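 Run under the antiviral-assay protocol but without virus. Viability was read on day 4 and CC50 values were derived from the readout.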

SMILES | EC50 [1] [µM] | CC50 at 4 days [2] [µM]
CN(C(=O)[C@H](Cc1cc(F)cc(F)c1)NC(=O)NS(=O)(=O)N[C@@H](Cc1cc(F)cc(F)c1)C(=O)N(C)c1ccc(C(C)(C)C)cc1)c1ccc(C(C)(C)C)cc1 [Example 168] | 0.15 | 16.2
CN(C(=O)[C@H](Cc1ccccc1)NC(=O)c1ccc(F)c(C(=O)N[C@@H](Cc2ccccc2)C(=O)N(C)c2ccc3scnc3c2)c1)c1ccc2scnc2c1 [Example 169] | 0.06 | 4.5
C=CCN(C(=O)[C@H](Cc1cc(F)cc(F)c1)NC(=O)CCC(=O)N[C@@H](Cc1cc(F)cc(F)c1)C(=O)N(CC=C)c1ccc(OC)cc1)c1ccc(OC)cc1 [Example 170] | 7.66 | 28.4
C=CCN(C(=O)[C@H](Cc1cc(F)cc(F)c1)NC(=O)CC(C)(C)CC(=O)N[C@@H](Cc1cc(F)cc(F)c1)C(=O)N(CC=C)c1ccc(OC)cc1)c1ccc(OC)cc1 [Example 171] | 100 | ≥ 100
Cc1ccc(N(C)C(=O)[C@H](Cc2cc(F)cc(F)c2)NC(=O)NS(=O)(=O)N[C@@H](Cc2cc(F)cc(F)c2)C(=O)N(C)c2ccc(C)nc2)cn1 [Example 172] | 0.58 | ≥ 100
CN(C(=O)[C@H](Cc1cc(F)cc(F)c1)NC(=O)NS(=O)(=O)N[C@@H](Cc1cc(F)cc(F)c1)C(=O)N(C)c1ccc(=O)n(C)c1)c1ccc(=O)n(C)c1 [Example 174] | 100 | ≥ 100
CN(C(=O)[C@H](Cc1cc(F)cc(F)c1)NC(=O)NS(=O)(=O)N[C@@H](Cc1cc(F)cc(F)c1)C(=O)N(C)c1ccc2sc(=O)[nH]c2c1)c1ccc2sc(=O)[nH]c2c1 [Example 175] | 0.45 | ≥ 100
COc1ccc(N(C)C(=O)[C@H](Cc2cc(F)cc(F)c2)NC(=O)NS(=O)(=O)N[C@@H](Cc2cc(F)cc(F)c2)C(=O)N(C)c2ccc(OC)nc2)cn1 [Example 176] | 0.04 | ≥ 100
CN(C(=O)[C@H](Cc1cc(F)cc(F)c1)NC(=O)NS(=O)(=O)N[C@@H](Cc1cc(F)cc(F)c1)C(=O)N(C)c1ccc2snnc2c1)c1ccc2snnc2c1 [Example 177] | 0.27 | 88
CN(C(=O)[C@H](Cc1cc(F)cc(F)c1)NC(=O)CN1c2ccccc2N(CC(=O)N[C@@H](Cc2cc(F)cc(F)c2)C(=O)N(C)c2ccc3snnc3c2)S1(=O)=O)c1ccc2snnc2c1 [Example 178] | 0.02 | ≥ 100
CN(C(=O)[C@H](Cc1cc(F)cc(F)c1)NC(=O)c1ccc(F)c(C(=O)N[C@@H](Cc2cc(F)cc(F)c2)C(=O)N(C)c2ccc3snnc3c2)c1)c1ccc2snnc2c1 [Example 179] | 0.34 | ≥ 100
CCc1ccc(N(C)C(=O)[C@H](Cc2cc(F)cc(F)c2)NC(=O)NS(=O)(=O)N[C@@H](Cc2cc(F)cc(F)c2)C(=O)N(C)c2ccc(CC)nc2)cn1 [Example 180] | 0.03 | 80.1
CN(C(=O)[C@H](Cc1cc(F)cc(F)c1)NC(=O)NS(=O)(=O)N[C@@H](Cc1cc(F)cc(F)c1)C(=O)N(C)c1ccc(C2CC2)nc1)c1ccc(C2CC2)nc1 [Example 181] | 0.02 | 85.8
CCCc1ccc(N(C)C(=O)[C@H](Cc2cc(F)cc(F)c2)NC(=O)NS(=O)(=O)N[C@@H](Cc2cc(F)cc(F)c2)C(=O)N(C)c2ccc(CCC)cc2)cc1 [Example 182B] | 0.02 | 13.4
Cc1ccc(N(C)C(=O)[C@H](Cc2cc(F)cc(F)c2)NC(=O)NS(=O)(=O)N[C@@H](Cc2cc(F)cc(F)c2)C(=O)N(C)c2ccc(C)cn2)nc1 [Example 182] | 0.4 | 97.9
CN(C(=O)[C@H](Cc1cc(F)cc(F)c1)NC(=O)NS(=O)(=O)N[C@@H](Cc1cc(F)cc(F)c1)C(=O)N(C)c1ccc(N2CCOCC2)cc1)c1ccc(N2CCOCC2)cc1 [Example 183] | 0.09 | 78.9
Cc1ccc(N(C)C(=O)[C@H](Cc2cc(F)cc(F)c2)NC(=O)c2ccc(F)c(C(=O)N[C@@H](Cc3cc(F)cc(F)c3)C(=O)N(C)c3ccc(C)nc3)c2)cn1 [Example 184] | 0.19 | 11.1
CN(C(=O)[C@H](Cc1cc(F)cc(F)c1)NC(=O)NS(=O)(=O)N[C@@H](Cc1cc(F)cc(F)c1)C(=O)N(C)c1ccc2c(cnn2C)c1)c1ccc2c(cnn2C)c1 [Example 185] | 0.08 | 96
CN(C(=O)[C@H](Cc1cc(F)cc(F)c1)NC(=O)NS(=O)(=O)N[C@@H](Cc1cc(F)cc(F)c1)C(=O)N(C)c1ccc2c(c1)ncn2C)c1ccc2c(c1)ncn2C [Example 186] | 6.15 | ≥ 100
C=CCN(C(=O)[C@H](Cc1cc(F)cc(F)c1)NS(=O)(=O)c1cccc(S(=O)(=O)N[C@@H](Cc2cc(F)cc(F)c2)C(=O)N(CC=C)c2ccc(OC)cc2)c1)c1ccc(OC)cc1 [Example 187] | 3.78 | ≥ 100

SMILES | EC50 [1] [µM] | CC50 at 4 days [2] [µM]
CN(C(=O)[C@H](Cc1cc(F)cc(F)c1)NC(=O)NS(=O)(=O)N[C@@H](Cc1cc(F)cc(F)c1)C(=O)N(C)c1ccc(OC(F)(F)F)cc1)c1ccc(OC(F)(F)F)cc1 [Example 189] | 0.01 | 8.2
C=CCN(C(=O)[C@H](Cc1cc(F)cc(F)c1)NC(=O)c1ccccc1C(=O)N[C@@H](Cc1cc(F)cc(F)c1)C(=O)N(CC=C)c1ccc(OC)cc1)c1ccc(OC)cc1 [Example 191] | 1.79 | ≥ 100
C=CCN(C(=O)[C@H](Cc1cc(F)cc(F)c1)NC(=O)c1cc(F)c(F)cc1C(=O)N[C@@H](Cc1cc(F)cc(F)c1)C(=O)N(CC=C)c1ccc(OC)cc1)c1ccc(OC)cc1 [Example 192] | 7.24 | 58.2
C=CCN(C(=O)[C@H](Cc1cc(F)cc(F)c1)NS(=O)(=O)c1ccccc1S(=O)(=O)N[C@@H](Cc1cc(F)cc(F)c1)C(=O)N(CC=C)c1ccc(OC)cc1)c1ccc(OC)cc1 [Example 193] | 1.74 | ≥ 33.3
C=CCN(C(=O)[C@H](Cc1cc(F)cc(F)c1)NC(=O)NS(=O)(=O)N[C@@H](Cc1cc(F)cc(F)c1)C(=O)N(CC=C)c1ccc(OC)nc1)c1ccc(OC)nc1 [Example 194] | 0.58 | 41.9
Cc1ccc(N(C)C(=O)[C@H](Cc2cc(F)cc(F)c2)NC(=O)CN2c3ccccc3N(CC(=O)N[C@@H](Cc3cc(F)cc(F)c3)C(=O)N(C)c3ccc(C)nc3)S2(=O)=O)cn1 [Example 195] | 0.02 | 54
COc1ccc(N(C)C(=O)[C@H](Cc2cc(F)cc(F)c2)NC(=O)c2ccc(F)c(C(=O)N[C@@H](Cc3cc(F)cc(F)c3)C(=O)N(C)c3ccc(OC)nc3)c2)cn1 [Example 196] | 0.37 | ≥ 100
COc1ccc(N(C)C(=O)[C@H](Cc2cc(F)cc(F)c2)NC(=O)CN2c3ccccc3N(CC(=O)N[C@@H](Cc3cc(F)cc(F)c3)C(=O)N(C)c3ccc(OC)nc3)S2(=O)=O)cn1 [Example 197] | 0.01 | 9.3
CN(C(=O)[C@H](Cc1cc(F)cc(F)c1)NC(=O)NS(=O)(=O)N[C@@H](Cc1cc(F)cc(F)c1)C(=O)N(C)c1ccc(C2CC2)cc1)c1ccc(C2CC2)cc1 [Example 198] | 0.01 | 12.5
CN(C(=O)[C@H](Cc1cc(F)cc(F)c1)NC(=O)NS(=O)(=O)N[C@@H](Cc1cc(F)cc(F)c1)C(=O)N(C)c1ccc(C(F)(F)F)nc1)c1ccc(C(F)(F)F)nc1 [Example 199] | 0.47 | 46.7
COc1ccc(N(C)C(=O)[C@H](Cc2cc(F)cc(F)c2)NS(=O)(=O)CS(=O)(=O)N[C@@H](Cc2cc(F)cc(F)c2)C(=O)N(C)c2ccc(OC)cc2)cc1 [Example 201] | 0.48 | 12.5
CN(C(=O)[C@H](Cc1cc(F)cc(F)c1)NS(=O)(=O)CS(=O)(=O)N[C@@H](Cc1cc(F)cc(F)c1)C(=O)N(C)c1ccc2scnc2c1)c1ccc2scnc2c1 [Example 202] | 0.08 | ≥ 100
CN(C(=O)[C@H](Cc1cc(F)cc(F)c1)NC(=O)NS(=O)(=O)N[C@@H](Cc1cc(F)cc(F)c1)C(=O)N(C)c1ccc2nccnc2c1)c1ccc2nccnc2c1 [Example 203] | 30.4 | ≥ 100
CCCN(C(=O)[C@H](Cc1cc(F)cc(F)c1)NC(=O)NS(=O)(=O)N[C@@H](Cc1cc(F)cc(F)c1)C(=O)N(CCC)c1ccc2nccnc2c1)c1ccc2nccnc2c1 [Example 204] | 15 | ≥ 33.3
CCc1ncc(N(C)C(=O)[C@H](Cc2cc(F)cc(F)c2)NC(=O)c2ccc(F)c(C(=O)N[C@@H](Cc3cc(F)cc(F)c3)C(=O)N(C)c3cnc(CC)nc3)c2)cn1 [Example 206] | 14.5 | ≥ 33.3
Cc1ncc(N(C)C(=O)[C@H](Cc2cc(F)cc(F)c2)NC(=O)NS(=O)(=O)N[C@@H](Cc2cc(F)cc(F)c2)C(=O)N(C)c2cnc(C)nc2)cn1 [Example 207] | 25 | ≥ 25
CCc1ncc(N(C)C(=O)[C@H](Cc2cc(F)cc(F)c2)NC(=O)NS(=O)(=O)N[C@@H](Cc2cc(F)cc(F)c2)C(=O)N(C)c2cnc(CC)nc2)cn1 [Example 208] | 16 | 37.7
CN(C(=O)[C@H](Cc1cc(F)cc(F)c1)NC(=O)CN1c2ccccc2N(CC(=O)N[C@@H](Cc2cc(F)cc(F)c2)C(=O)N(C)c2ccc3c(c2)ncn3C)S1(=O)=O)c1ccc2c(c1)ncn2C [Example 209] | 0.42 | ≥ 100
C=CCN(C(=O)[C@H](Cc1cc(F)cc(F)c1)NC(=O)c1ccccc1S(=O)(=O)N[C@@H](Cc1cc(F)cc(F)c1)C(=O)N(CC=C)c1ccc(OC)cc1)c1ccc(OC)cc1 [Example 210] | 10.1 | ≥ 100
C=CCN(C(=O)[C@H](Cc1cc(F)cc(F)c1)NC(=O)c1ccncc1C(=O)N[C@@H](Cc1cc(F)cc(F)c1)C(=O)N(CC=C)c1ccc(OC)cc1)c1ccc(OC)cc1 [Example 211] | 3.92 | 14
